The text below walks through data of ChEMBL document CHEMBL3217557, “Triazole-substituted N-hydroxyindol-2-carboxylates as inhibitors of isoform 5 of human lactate dehydrogenase (hLDH5)” (Medchemcomm, 2011).

Assay [1] deals with T1, L-lactate dehydrogenase A chain (Homo sapiens, UniProt P00338). Description: Inhibition of human LDHA4 using sodium pyruvate as substrate assessed as NADH oxidation at 125 uM measured every 30 secs for 5 mins by spectrophotometric analysis relative to control.
Assay [2] concerns the target T1, L-lactate dehydrogenase A chain. As to the kind of experiment: Competitive inhibition of human LDHA4 using sodium pyruvate as substrate measured every 30 secs for 5 mins by Lineweaver-Burk plot analysis in presence of 12.5 to 150 uM NADH.
The target is the same in assay [3]. Description: Competitive inhibition of human LDHA4 using 0.025 to 1 mM sodium pyruvate as substrate measured every 30 secs for 5 mins by Lineweaver-Burk plot analysis in presence of NADH.
For the next assay, the species on record is Homo sapiens. Description: Inhibition of human LDH1 using sodium pyruvate as substrate assessed as NADH oxidation at 125 uM measured every 30 secs for 5 mins by spectrophotometric analysis relative to control.
Assay [4] can be described thus: Competitive inhibition of human LDH1 using sodium pyruvate as substrate measured every 30 secs for 5 mins by Lineweaver-Burk plot analysis in presence of 12.5 to 150 uM NADH.

Broadly, the inhibition is the share of the control response that was lost under treatment. As to `CCCCc1cn(-c2cccc3c2cc(C(=O)O)n3O)nn1`, the inhibition in assay [1] is less than 15%.
Broadly, the Ki is a measure of affinity in units of concentration, obtained from inhibition or displacement. As to `O=C(O)c1cccc(-c2cn(-c3ccc4cc(C(=O)O)n(O)c4c3)nn2)c1`, the inhibition constant (Ki) in assay [2] turned out to be 50 µM; in assay [3], 45 µM. For the same molecule, the inhibition in assay [1] was 65%; in the assay filed under Homo sapiens, less than 3%.
In the case of `O=C(O)c1cc2cc(-n3cc(-c4ccccc4)nn3)ccc2n1O`, in assay [1], the inhibition was less than 15%.
With `O=C(O)c1cccc(-c2cn(-c3ccc4c(c3)cc(C(=O)O)n4O)nn2)c1`, the inhibition in assay [1] was less than 15%.
Consider `O=C(O)c1cc2ccc(-n3cc(CCCc4cn(-c5ccc6cc(C(=O)O)n(O)c6c5)nn4)nn3)cc2n1O`, for which the Ki in assay [2] turned out to be 20 µM; in assay [3] it was 37 µM. Also, the inhibition was 83% in assay [1] and 32% in the assay listed under Homo sapiens.
On to `O=C(O)c1cc2c(-n3cc(CCO)nn3)cccc2n1O`, for which the inhibition in assay [1] is less than 15%.
`O=C(O)c1cccc(-c2cn(-c3cccc4c3cc(C(=O)O)n4O)nn2)c1`: the Ki amounted to 57 µM in assay [2], 86 µM in assay [3] and 89 µM in assay [4]. The inhibition (in assay [1]; in the assay listed under Homo sapiens) was 60% throughout.
In the case of `O=C(O)c1cc2c(-n3cc(-c4ccccc4)nn3)cccc2n1O`, the Ki in assay [2] turned out to be 28 µM; in assay [3] it was 44 µM. Besides, the inhibition in assay [1] was 73%; in the assay filed under Homo sapiens it was less than 3%.
